Laboratory results published in publication PMC7347136 (PLoS ONE, 2020).

Key:
Assay in all cases: Carna kinase panel screen
Type in all cases: biochemical
Conditions in all cases: read-out: % Inhibition ± SD
p38d = biological target: T1, p38d (Homo sapiens, UniProt O15264)
T1 construct: purchased Carna Biosciences
Protocol: (§1) IC50 values were determined from a 10-point concentration curve using ATP concentrations approximating Km values. […] The percentage inhibition of each test solution was calculated, which allowed the IC50 value to be determined from concentration versus percentage inhibition curves by fitting to a four parameter logistic curve.

FER = biological target: T2, FER (Homo sapiens, UniProt P16591)
T2 construct: purchased Carna Biosciences
Protocol: as §1

MARK3 = biological target: T3, MARK3 (Homo sapiens, UniProt P27448)
T3 construct: purchased Carna Biosciences
Protocol: as §1

LYNa = biological target: T4, LYNa (Homo sapiens, UniProt P07948)
T4 construct: purchased Carna Biosciences
Protocol: as §1

FGFR2 = biological target: T5, FGFR2 (Homo sapiens, UniProt P21802)
T5 construct: purchased Carna Biosciences
Protocol: as §1

PLK4 = biological target: T6, PLK4 (Homo sapiens, UniProt O00444)
T6 construct: purchased Carna Biosciences
Protocol: as §1

PIM1 = biological target: T7, PIM1 (Homo sapiens, UniProt P11309)
T7 construct: purchased Carna Biosciences
Protocol: as §1

FGFR3[K650M] = biological target: T8, FGFR3[K650M] (Homo sapiens, UniProt P22607, K650M)
T8 construct: purchased Carna Biosciences
Protocol: as §1

CDK5 = biological target: T9, CDK5 (Homo sapiens, UniProt Q00535)
T9 construct: purchased Carna Biosciences
Protocol: as §1

HIPK1 = biological target: T10, HIPK1 (Homo sapiens, UniProt Q86Z02)
T10 construct: purchased Carna Biosciences
Protocol: as §1

TEC = biological target: T11, TEC (Homo sapiens, UniProt P42680)
T11 construct: purchased Carna Biosciences
Protocol: as §1

EphA6 = biological target: T12, EphA6 (Homo sapiens, UniProt Q9UF33)
T12 construct: purchased Carna Biosciences
Protocol: as §1

BMX = biological target: T13, BMX (Homo sapiens, UniProt P51813)
T13 construct: purchased Carna Biosciences
Protocol: as §1

MST2 = biological target: T14, MST2 (Homo sapiens, UniProt Q13188)
T14 construct: purchased Carna Biosciences
Protocol: as §1

FAK = biological target: T15, FAK (Homo sapiens, UniProt Q05397)
T15 construct: purchased Carna Biosciences
Protocol: as §1

PKCd = biological target: T16, PKCd (Homo sapiens, UniProt Q05655)
T16 construct: purchased Carna Biosciences
Protocol: as §1

EGFR = biological target: T17, EGFR (Homo sapiens, UniProt P00533)
T17 construct: purchased Carna Biosciences
Protocol: as §1

PLK1 = biological target: T18, PLK1 (Homo sapiens, UniProt P53350)
T18 construct: purchased Carna Biosciences
Protocol: as §1

EphB4 = biological target: T19, EphB4 (Homo sapiens, UniProt P54760)
T19 construct: purchased Carna Biosciences
Protocol: as §1

CaMK1d = biological target: T20, CaMK1d (Homo sapiens, UniProt Q8IU85)
T20 construct: purchased Carna Biosciences
Protocol: as §1

CK1a = biological target: T21, CK1a (Homo sapiens, UniProt P48729)
T21 construct: purchased Carna Biosciences
Protocol: as §1

PKD2 = biological target: T22, PKD2 (Homo sapiens, UniProt Q9BZL6)
T22 construct: purchased Carna Biosciences
Protocol: as §1

ABL = biological target: T23, ABL (Homo sapiens, UniProt P00519)
T23 construct: purchased Carna Biosciences
Protocol: as §1

FGR = biological target: T24, FGR (Homo sapiens, UniProt P09769)
T24 construct: purchased Carna Biosciences
Protocol: as §1

MAP3K2 = biological target: T25, MAP3K2 (Homo sapiens, UniProt Q9Y2U5)
T25 construct: purchased Carna Biosciences
Protocol: as §1

FLT1 = biological target: T26, FLT1 (Homo sapiens, UniProt P17948)
T26 construct: purchased Carna Biosciences
Protocol: as §1

FGFR3[K650E] = biological target: T27, FGFR3[K650E] (Homo sapiens, UniProt P22607, K650E)
T27 construct: purchased Carna Biosciences
Protocol: as §1

MET = biological target: T28, MET (Homo sapiens, UniProt P08581)
T28 construct: purchased Carna Biosciences
Protocol: as §1

MELK = biological target: T29, MELK (Homo sapiens, UniProt Q14680)
T29 construct: purchased Carna Biosciences
Protocol: as §1

AKT1 = biological target: T30, AKT1 (Homo sapiens, UniProt P31749)
T30 construct: purchased Carna Biosciences
Protocol: as §1

IRR = biological target: T31, IRR (Homo sapiens, UniProt P14616)
T31 construct: purchased Carna Biosciences
Protocol: as §1

CK2a1 = biological target: T32, CK2a1 (Homo sapiens, UniProt P68400)
T32 construct: purchased Carna Biosciences
Protocol: as §1

EGFR[T790M] = biological target: T33, EGFR[T790M] (Homo sapiens, UniProt P00533, T790M)
T33 construct: purchased Carna Biosciences
Protocol: as §1

WEE1 = biological target: T34, WEE1 (Homo sapiens, UniProt P30291)
T34 construct: purchased Carna Biosciences
Protocol: as §1

PAK1 = biological target: T35, PAK1 (Homo sapiens, UniProt Q13153)
T35 construct: purchased Carna Biosciences
Protocol: as §1

PLK3 = biological target: T36, PLK3 (Homo sapiens, UniProt Q9H4B4)
T36 construct: purchased Carna Biosciences
Protocol: as §1

MST1 = biological target: T37, MST1 (Homo sapiens, UniProt Q13043)
T37 construct: purchased Carna Biosciences
Protocol: as §1

PKCb1 = biological target: T38, PKCb1 (Homo sapiens, UniProt P05771)
T38 construct: purchased Carna Biosciences
Protocol: as §1

BRSK2 = biological target: T39, BRSK2 (Homo sapiens, UniProt Q8IWQ3)
T39 construct: purchased Carna Biosciences
Protocol: as §1

PKCz = biological target: T40, PKCz (Homo sapiens, UniProt Q05513)
T40 construct: purchased Carna Biosciences
Protocol: as §1

PDK1 = biological target: T41, PDK1 (Homo sapiens, UniProt O15530)
T41 construct: purchased Carna Biosciences
Protocol: as §1

JNK2 = biological target: T42, JNK2 (Homo sapiens, UniProt P45984)
T42 construct: purchased Carna Biosciences
Protocol: as §1

EphB3 = biological target: T43, EphB3 (Homo sapiens, UniProt P54753)
T43 construct: purchased Carna Biosciences
Protocol: as §1

T8 sequence (P22607 23-806 K650M): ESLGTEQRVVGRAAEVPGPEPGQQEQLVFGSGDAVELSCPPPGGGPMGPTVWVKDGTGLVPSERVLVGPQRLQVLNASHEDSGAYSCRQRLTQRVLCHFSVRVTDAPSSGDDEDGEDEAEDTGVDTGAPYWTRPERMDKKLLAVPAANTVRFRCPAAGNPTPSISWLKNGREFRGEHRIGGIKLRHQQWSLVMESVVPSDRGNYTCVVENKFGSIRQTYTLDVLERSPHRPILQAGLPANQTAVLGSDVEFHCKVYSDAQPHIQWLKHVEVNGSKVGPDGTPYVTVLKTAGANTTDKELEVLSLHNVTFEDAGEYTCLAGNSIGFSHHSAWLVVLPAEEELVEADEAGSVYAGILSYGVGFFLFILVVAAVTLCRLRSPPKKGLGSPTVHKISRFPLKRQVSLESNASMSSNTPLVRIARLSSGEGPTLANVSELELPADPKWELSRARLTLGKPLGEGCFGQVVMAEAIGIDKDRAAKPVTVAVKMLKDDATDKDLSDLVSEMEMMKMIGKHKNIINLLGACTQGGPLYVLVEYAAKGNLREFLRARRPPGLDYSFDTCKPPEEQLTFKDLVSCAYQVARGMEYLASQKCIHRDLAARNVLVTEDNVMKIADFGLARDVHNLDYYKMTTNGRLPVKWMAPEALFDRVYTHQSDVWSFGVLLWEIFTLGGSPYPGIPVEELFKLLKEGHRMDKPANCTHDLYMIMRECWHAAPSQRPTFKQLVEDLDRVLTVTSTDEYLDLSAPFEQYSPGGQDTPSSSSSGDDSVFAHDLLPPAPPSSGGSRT
T23 sequence (P00519 whole entry): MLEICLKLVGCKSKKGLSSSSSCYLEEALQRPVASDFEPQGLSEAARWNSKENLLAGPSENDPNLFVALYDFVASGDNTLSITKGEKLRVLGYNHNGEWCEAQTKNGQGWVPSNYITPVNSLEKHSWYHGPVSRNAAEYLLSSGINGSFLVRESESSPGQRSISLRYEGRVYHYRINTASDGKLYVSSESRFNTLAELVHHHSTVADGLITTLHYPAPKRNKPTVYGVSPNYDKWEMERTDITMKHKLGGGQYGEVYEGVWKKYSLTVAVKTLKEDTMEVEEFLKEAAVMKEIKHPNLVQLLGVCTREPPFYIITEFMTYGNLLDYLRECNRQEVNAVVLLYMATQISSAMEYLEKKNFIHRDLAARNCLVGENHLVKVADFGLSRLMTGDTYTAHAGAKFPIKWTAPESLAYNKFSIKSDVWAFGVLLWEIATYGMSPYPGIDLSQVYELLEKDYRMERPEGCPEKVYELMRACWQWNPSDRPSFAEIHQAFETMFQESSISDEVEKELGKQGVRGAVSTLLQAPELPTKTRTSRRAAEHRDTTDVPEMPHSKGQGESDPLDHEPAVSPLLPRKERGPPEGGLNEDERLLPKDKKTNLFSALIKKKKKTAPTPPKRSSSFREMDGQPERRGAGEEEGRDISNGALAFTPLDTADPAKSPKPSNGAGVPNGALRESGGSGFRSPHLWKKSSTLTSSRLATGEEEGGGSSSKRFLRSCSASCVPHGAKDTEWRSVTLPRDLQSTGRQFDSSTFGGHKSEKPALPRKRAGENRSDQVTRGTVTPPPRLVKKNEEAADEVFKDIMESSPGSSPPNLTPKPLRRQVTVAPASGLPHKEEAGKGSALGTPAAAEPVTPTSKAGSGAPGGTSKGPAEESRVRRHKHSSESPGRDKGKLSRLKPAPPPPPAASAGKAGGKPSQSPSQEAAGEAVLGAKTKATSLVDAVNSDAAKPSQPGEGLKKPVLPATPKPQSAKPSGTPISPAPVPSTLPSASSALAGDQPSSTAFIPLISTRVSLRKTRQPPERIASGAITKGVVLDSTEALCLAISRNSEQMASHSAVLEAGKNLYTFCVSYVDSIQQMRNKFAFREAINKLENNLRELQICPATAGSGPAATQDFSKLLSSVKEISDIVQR
T9 sequence (Q00535 whole entry): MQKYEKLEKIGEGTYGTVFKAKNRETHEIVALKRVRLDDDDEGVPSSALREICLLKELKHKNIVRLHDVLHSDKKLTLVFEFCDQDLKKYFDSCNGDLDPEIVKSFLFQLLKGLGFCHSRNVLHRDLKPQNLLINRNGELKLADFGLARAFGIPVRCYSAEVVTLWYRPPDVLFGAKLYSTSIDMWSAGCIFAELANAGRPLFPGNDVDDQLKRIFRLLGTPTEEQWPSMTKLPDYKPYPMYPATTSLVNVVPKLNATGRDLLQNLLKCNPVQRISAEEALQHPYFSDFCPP
T9 sequence (Q15078 99-307 partner limits assumed): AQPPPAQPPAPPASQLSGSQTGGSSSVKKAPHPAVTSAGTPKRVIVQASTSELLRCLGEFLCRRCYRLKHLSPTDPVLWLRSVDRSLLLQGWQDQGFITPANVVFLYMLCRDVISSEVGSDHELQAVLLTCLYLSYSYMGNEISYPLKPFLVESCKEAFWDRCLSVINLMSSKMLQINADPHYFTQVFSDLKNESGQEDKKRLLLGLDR
T1 sequence (O15264 whole entry): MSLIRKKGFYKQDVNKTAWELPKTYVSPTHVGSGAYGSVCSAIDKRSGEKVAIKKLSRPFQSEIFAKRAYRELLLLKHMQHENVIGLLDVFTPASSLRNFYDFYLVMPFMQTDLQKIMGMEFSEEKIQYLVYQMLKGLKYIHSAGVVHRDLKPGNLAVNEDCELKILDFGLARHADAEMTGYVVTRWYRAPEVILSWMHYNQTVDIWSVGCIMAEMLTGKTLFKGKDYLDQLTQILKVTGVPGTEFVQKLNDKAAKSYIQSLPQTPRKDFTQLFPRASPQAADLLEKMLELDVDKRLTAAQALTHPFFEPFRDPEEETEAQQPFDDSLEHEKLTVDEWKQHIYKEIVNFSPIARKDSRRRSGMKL
T13 sequence (P51813 whole entry): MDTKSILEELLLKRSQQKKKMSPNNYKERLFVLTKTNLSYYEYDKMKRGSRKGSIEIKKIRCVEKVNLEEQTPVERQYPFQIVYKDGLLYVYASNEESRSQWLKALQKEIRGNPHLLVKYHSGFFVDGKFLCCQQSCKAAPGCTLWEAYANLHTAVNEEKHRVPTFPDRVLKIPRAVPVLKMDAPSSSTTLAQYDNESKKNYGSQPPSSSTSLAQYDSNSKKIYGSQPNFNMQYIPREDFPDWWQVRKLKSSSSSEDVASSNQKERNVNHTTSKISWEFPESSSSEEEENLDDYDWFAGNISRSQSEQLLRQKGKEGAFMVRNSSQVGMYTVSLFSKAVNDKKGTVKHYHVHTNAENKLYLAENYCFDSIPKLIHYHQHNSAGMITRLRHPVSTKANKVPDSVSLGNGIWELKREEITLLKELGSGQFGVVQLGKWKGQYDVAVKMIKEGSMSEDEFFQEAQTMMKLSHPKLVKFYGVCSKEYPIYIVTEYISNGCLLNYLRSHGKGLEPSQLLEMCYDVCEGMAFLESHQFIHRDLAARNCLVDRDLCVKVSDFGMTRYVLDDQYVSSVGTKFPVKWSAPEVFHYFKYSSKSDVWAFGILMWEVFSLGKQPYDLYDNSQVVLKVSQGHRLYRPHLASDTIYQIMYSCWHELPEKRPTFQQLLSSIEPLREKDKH
T42 sequence (P45984 whole entry): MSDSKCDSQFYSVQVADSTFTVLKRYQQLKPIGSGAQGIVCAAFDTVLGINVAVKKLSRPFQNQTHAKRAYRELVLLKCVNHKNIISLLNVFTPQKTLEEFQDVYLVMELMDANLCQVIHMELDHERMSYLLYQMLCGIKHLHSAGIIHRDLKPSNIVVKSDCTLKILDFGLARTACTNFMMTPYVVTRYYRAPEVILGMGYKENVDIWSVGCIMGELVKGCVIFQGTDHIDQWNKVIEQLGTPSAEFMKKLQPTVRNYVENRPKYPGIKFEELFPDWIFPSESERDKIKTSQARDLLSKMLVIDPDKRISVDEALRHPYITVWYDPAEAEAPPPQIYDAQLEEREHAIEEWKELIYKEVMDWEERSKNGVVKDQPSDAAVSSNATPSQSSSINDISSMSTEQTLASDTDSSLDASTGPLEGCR
T14 sequence (Q13188 whole entry): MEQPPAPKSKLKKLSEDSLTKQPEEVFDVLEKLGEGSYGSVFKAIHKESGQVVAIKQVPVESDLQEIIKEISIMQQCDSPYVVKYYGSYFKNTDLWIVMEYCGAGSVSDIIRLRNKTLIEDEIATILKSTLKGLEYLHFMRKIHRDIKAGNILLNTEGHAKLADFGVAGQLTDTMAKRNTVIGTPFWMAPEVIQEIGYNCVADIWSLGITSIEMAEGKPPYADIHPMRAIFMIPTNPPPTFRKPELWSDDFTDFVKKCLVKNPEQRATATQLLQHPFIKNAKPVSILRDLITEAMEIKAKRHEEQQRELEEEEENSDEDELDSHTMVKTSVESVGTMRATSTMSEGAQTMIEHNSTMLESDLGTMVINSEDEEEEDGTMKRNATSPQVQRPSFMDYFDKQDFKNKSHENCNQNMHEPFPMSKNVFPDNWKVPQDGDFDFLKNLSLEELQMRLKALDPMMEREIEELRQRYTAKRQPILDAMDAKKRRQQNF
T29 sequence (Q14680 whole entry): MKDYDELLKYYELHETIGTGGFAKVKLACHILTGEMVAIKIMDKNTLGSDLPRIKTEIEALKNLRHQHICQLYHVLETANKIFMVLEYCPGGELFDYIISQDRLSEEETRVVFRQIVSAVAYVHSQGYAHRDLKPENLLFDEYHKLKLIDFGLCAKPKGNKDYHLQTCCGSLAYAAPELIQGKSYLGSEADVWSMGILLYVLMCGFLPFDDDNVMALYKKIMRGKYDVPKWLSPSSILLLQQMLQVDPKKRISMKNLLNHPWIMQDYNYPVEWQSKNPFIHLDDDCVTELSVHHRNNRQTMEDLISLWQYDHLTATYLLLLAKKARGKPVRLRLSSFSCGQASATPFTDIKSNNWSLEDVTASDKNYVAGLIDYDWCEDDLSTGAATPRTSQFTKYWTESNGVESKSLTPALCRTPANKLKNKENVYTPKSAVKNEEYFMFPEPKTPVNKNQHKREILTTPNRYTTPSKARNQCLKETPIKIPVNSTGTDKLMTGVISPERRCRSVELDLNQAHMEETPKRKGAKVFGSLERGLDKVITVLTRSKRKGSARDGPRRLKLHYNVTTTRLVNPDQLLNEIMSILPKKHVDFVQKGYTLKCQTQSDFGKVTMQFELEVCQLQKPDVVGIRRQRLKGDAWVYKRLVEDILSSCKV

Compound: CC[C@H](Nc1nc(NCc2cnc(C)cc2C)c2ncn(C(C)C)c2n1)[C@@H](C)O [Fadraciclib, 2-pentanol, 3-[[6-[[(4,6-dimethyl-3-pyridinyl)methyl]amino]-9-(1-methylethyl)-9Hpurin-2-yl]amino]-, (2R,3S)]
- inhibition at 1 µM (p38d): -16 ± 0.6%
- inhibition at 1 µM (FER): -0.3%
- inhibition at 1 µM (MARK3): -0.9 ± 0.1%
- inhibition at 1 µM (LYNa): 2.2 ± 0.1%
- inhibition at 1 µM (FGFR2): -17.6 ± 2.2%
- inhibition at 1 µM (PLK4): -38.5 ± 1%
- inhibition at 1 µM (PIM1): 7.4 ± 0.1%
- inhibition at 1 µM (FGFR3[K650M]): 3.2 ± 0.1%
- inhibition at 1 µM (CDK5): 98.1 ± 4%
- inhibition at 1 µM (HIPK1): 6.8 ± 0.3%
- inhibition at 1 µM (TEC): -14.9%
- inhibition at 1 µM (EphA6): 5.7 ± 0.3%
- inhibition at 1 µM (BMX): 6.6 ± 0.3%
- inhibition at 1 µM (MST2): -1.5%
- inhibition at 1 µM (FAK): 23.4 ± 2.9%
- inhibition at 1 µM (PKCd): 28.7 ± 2.7%
- inhibition at 1 µM (EGFR): -10.8 ± 0.4%
- inhibition at 1 µM (PLK1): 5.7 ± 0.3%
- inhibition at 1 µM (EphB4): 3.6 ± 0.1%
- inhibition at 1 µM (CaMK1d): -14.5 ± 0.1%
- inhibition at 1 µM (CK1a): 8.2 ± 0.3%
- inhibition at 1 µM (PKD2): -13.4 ± 0.6%
- inhibition at 1 µM (ABL): -12.7 ± 0.3%
- inhibition at 1 µM (FGR): 3.3 ± 0.1%
- inhibition at 1 µM (MAP3K2): -14.7 ± 0.8%
- inhibition at 1 µM (FLT1): 1.9%
- inhibition at 1 µM (FGFR3[K650E]): 5.6%
- inhibition at 1 µM (MET): -8.3 ± 0.1%
- inhibition at 1 µM (MELK): 5 ± 0.1%
- inhibition at 1 µM (AKT1): -0.6%
- inhibition at 1 µM (IRR): -5.5%
- inhibition at 1 µM (CK2a1): -22.8 ± 0.7%
- inhibition at 1 µM (EGFR[T790M]): -9.6 ± 0.1%
- inhibition at 1 µM (WEE1): 35.1 ± 0.1%
- inhibition at 1 µM (PAK1): -5.8 ± 0.2%
- inhibition at 1 µM (PLK3): 5.7 ± 0.3%
- inhibition at 1 µM (MST1): 4 ± 0.1%
- inhibition at 1 µM (PKCb1): -1.9%
- inhibition at 1 µM (BRSK2): 1.1%
- inhibition at 1 µM (PKCz): -0.2%
- inhibition at 1 µM (PDK1): -5.4 ± 0.1%
- inhibition at 1 µM (JNK2): -19.3 ± 2.2%
- inhibition at 1 µM (EphB3): 0%
